Values of other authors in patent US8883204B2, “Tamper resistant co-extruded dosage form containing an active agent and an adverse agent and process of making same” (Purdue Pharma L.P., priority 2003, dated 2014).

Conditions: administered orally

| SMILES | duration of action [h] |
| --- | --- |
| C[C@H]1[C@H]2Cc3ccc(O)cc3[C@]1(C)CCN2CC1CC1 [cyclazocine] | ~24 |
| O=C1CC[C@@]2(O)[C@H]3Cc4ccc(O)c5c4[C@@]2(CCN3CC2CC2)[C@H]1O5 [naltrexone] | ~24 |
